Assay results reported in ChEMBL document CHEMBL1123709, “Affinity labels for beta-adrenoceptors: preparation and properties of alkylating beta-blockers derived from indole” (J Med Chem, 1987).

How the values were obtained:
Adrenergic receptor beta [1] = target: T1, Adrenergic receptor beta (Rattus norvegicus, UniProt P18090+P10608+P26255); assay: Binding affinity against the [3H]dihydroalprenolol binding to beta adrenergic receptor of rat heart reticulocytes pretreated with alkylating beta-blockers
Adrenergic receptor beta [2] = target: T1, Adrenergic receptor beta; assay: Binding affinity against beta adrenergic receptor from rat heart tissues was determined; assay type: protein assay
Adrenergic receptor beta [3] = target: T1, Adrenergic receptor beta; assay: Binding affinity against beta adrenergic receptor from rat lung tissues was determined; assay type: protein assay
Adrenergic receptor beta [4] = target: T1, Adrenergic receptor beta; assay: Binding affinity against the [3H]dihydroalprenolol binding to beta adrenergic receptor of rat lung reticulocytes pretreated with alkylating beta-blockers
Adrenergic receptor beta [5] = target: T1, Adrenergic receptor beta; assay: Binding affinity against the [3H]dihydroalprenolol binding sites on beta adrenergic receptor of rat heart reticulocytes pretreated with alkylating beta-blockers
[6] = target: T2, Adrenergic receptor beta (Rattus norvegicus) (UniProt P18090+P10608+P26255); assay: Concentration of binding sites of protein for [3H]dihydroalprenolol binding sites on beta adrenergic receptor of rat heart reticulocytes was determined
[7] = target: T2, Adrenergic receptor beta (Rattus norvegicus); assay: Percent potency for irreversible blockade of the [3H]dihydroalprenolol binding to beta adrenergic receptor of rat heart reticulocytes pretreated with alkylating beta blockers at concentration of 1 x 10e-6 M
[8] = target: T2, Adrenergic receptor beta (Rattus norvegicus); assay: Percent potency for irreversible blockade of the [3H]dihydroalprenolol binding to beta adrenergic receptor of rat heart reticulocytes pretreated with alkylating beta blockers at concentration of 1 x 10e-7 M

Row | Kd (Adrenergic receptor beta [4]) | Kd (Adrenergic receptor beta [5]) | Bmax (fM (mg of protein)-1) [6] | Blockade [7] | Blockade [8] | SMILES | Kd (Adrenergic receptor beta [1]) | Ki (Adrenergic receptor beta [2]) | Ki (Adrenergic receptor beta [3])
1 | 1.4 nM | 2 nM | – | – | – | CC1(NC(=O)CBr)CCC(C(C)(C)NCC(O)COc2cccc3[nH]ccc23)CC1 (stereo unspecified) | – | 22.6 nM | 4.46 nM
2 | – | – | – | – | – | C=CCc1ccccc1OCC(O)CNC(C)(C)C1CCC(C)(NC(=O)CBr)CC1 (stereo unspecified) | – | 31.2 nM | 19.8 nM
3 | – | – | – | – | – | C=CCc1ccccc1OCC(O)CNC1(C)CCC(C(C)(C)NC(=O)CBr)CC1 (stereo unspecified) [BROMOACETYL ALPRENOLOL MENTHANE] | – | 391 nM | 126 nM
4 | 1 nM | – | 11 | 95% | 89% | CC1(NCC(O)COc2cccc3[nH]c(C#N)cc23)CCC(C(C)(C)NC(=O)CBr)CC1 (stereo unspecified) | 1.6 nM | 0.61 nM | 1.49 nM
5 | – | – | – | – | – | CC1(NCC(O)COc2cccc3[nH]ccc23)CCC(C(C)(C)NC(=O)CBr)CC1 (stereo unspecified) | – | 0.46 nM | 1.34 nM

Row | SMILES | Kd (Adrenergic receptor beta [4]) | Kd (Adrenergic receptor beta [5]) | Bmax (fM (mg of protein)-1) [6] | Blockade [7] | Blockade [8] | Kd (Adrenergic receptor beta [1]) | Ki (Adrenergic receptor beta [2]) | Ki (Adrenergic receptor beta [3])
6 | CC1(NC(=O)CBr)CCC(C(C)(C)NCC(O)COc2cccc3[nH]c(C#N)cc23)CC1 (stereo unspecified) | 1.2 nM | – | – | – | – | 1.6 nM | 1.83 nM | 2.78 nM
